Measured values as given in the supplement of paper PMC10307832.

Assays:
Test in all cases: relative viability (nuclei count vs DMSO), 5 days (fraction); higher = more cells survive
EKVX = test system: EKVX
Procedure, shortened: (§1)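 Nuclei were stained with Hoechst during a one-step fixation (final 0.05% Triton X-100, 1% formaldehyde, 1 ug/ml Hoechst) carried out 5 days after dosing, then counted on 4× images. The cells, lung cancer lines in 1536-well plates, had been dosed by pin tool the day after seeding with one drug alone or a fixed anchor-drug dose plus five library-drug doses (not always all listed) in √10 steps. Relative viability is the nuclei count in treated wells divided by that in vehicle wells, and each value is the median of duplicate plates.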

LCLC-97TM1 = test system: LCLC-97TM1
Procedure, shortened: as §1

NCI-H1437 = test system: NCI-H1437
Procedure, shortened: as §1

NCI-H1650 = test system: NCI-H1650
Procedure, shortened: as §1

NCI-H1666 = test system: NCI-H1666
Procedure, shortened: as §1

NCI-H1792 = test system: NCI-H1792
Procedure, shortened: as §1

NCI-H1915 = test system: NCI-H1915
Procedure, shortened: as §1

NCI-H1975 = test system: NCI-H1975
Procedure, shortened: as §1

NCI-H2342 = test system: NCI-H2342
Procedure, shortened: as §1

NCI-H23 = test system: NCI-H23
Procedure, shortened: as §1

NCI-H322M = test system: NCI-H322M
Procedure, shortened: as §1

NCI-H358 = test system: NCI-H358
Procedure, shortened: as §1

NCI-H441 = test system: NCI-H441
Procedure, shortened: as §1

NCI-H460 = test system: NCI-H460
Procedure, shortened: as §1

NCI-H520 = test system: NCI-H520
Procedure, shortened: as §1

NCI-H522 = test system: NCI-H522
Procedure, shortened: as §1

NCI-H596 = test system: NCI-H596
Procedure, shortened: as §1

NCI-H647 = test system: NCI-H647
Procedure, shortened: as §1

NCI-H661 = test system: NCI-H661
Procedure, shortened: as §1

NCI-H727 = test system: NCI-H727
Procedure, shortened: as §1

NCI-H838 = test system: NCI-H838
Procedure, shortened: as §1

PC-3 [JPC-3] = test system: PC-3 [JPC-3]
Procedure, shortened: as §1

SK-LU-1 = test system: SK-LU-1
Procedure, shortened: as §1

Question: Which results are given for Cc1cn(-c2cc(NC(=O)c3ccc(C)c(Nc4nccc(-c5cccnc5)n4)c3)cc(C(F)(F)F)c2)cn1 [Nilotinib] + CCNC(=O)c1noc(-c2cc(C(C)C)c(O)cc2O)c1-c1ccc(CN2CCOCC2)cc1 [Luminespib] (partner 0.01 µM)?
Answer: relative viability (EKVX; first compound 0.001 µM): 0.839; relative viability (EKVX; first compound 0.003162 µM): 0.959; relative viability (EKVX; first compound 0.01 µM): 1.09; relative viability (EKVX; first compound 0.03162 µM): 0.88; relative viability (EKVX; first compound 0.1 µM): 0.955; relative viability (LCLC-97TM1; first compound 0.001 µM): 0.795; relative viability (LCLC-97TM1; first compound 0.003162 µM): 0.868; relative viability (LCLC-97TM1; first compound 0.01 µM): 0.741; relative viability (LCLC-97TM1; first compound 0.03162 µM): 0.607; relative viability (LCLC-97TM1; first compound 0.1 µM): 0.641; relative viability (NCI-H1437; first compound 0.001 µM): 1.11; relative viability (NCI-H1437; first compound 0.003162 µM): 1.3; relative viability (NCI-H1437; first compound 0.01 µM): 1.26; relative viability (NCI-H1437; first compound 0.03162 µM): 0.885; relative viability (NCI-H1437; first compound 0.1 µM): 0.934; relative viability (NCI-H1650; first compound 0.001 µM): 0.208; relative viability (NCI-H1650; first compound 0.003162 µM): 0.203; relative viability (NCI-H1650; first compound 0.01 µM): 0.197; relative viability (NCI-H1650; first compound 0.03162 µM): 0.221; relative viability (NCI-H1650; first compound 0.1 µM): 0.192; relative viability (NCI-H1666; first compound 0.001 µM): 1.02; relative viability (NCI-H1666; first compound 0.003162 µM): 1.01; relative viability (NCI-H1666; first compound 0.01 µM): 1.1; relative viability (NCI-H1666; first compound 0.03162 µM): 0.999; relative viability (NCI-H1666; first compound 0.1 µM): 1.17; relative viability (NCI-H1792; first compound 0.003162 µM): 0.417; relative viability (NCI-H1792; first compound 0.01 µM): 0.545; relative viability (NCI-H1792; first compound 0.1 µM): 0.266; relative viability (NCI-H1915; first compound 0.001 µM): 0.713; relative viability (NCI-H1915; first compound 0.003162 µM): 0.896; relative viability (NCI-H1915; first compound 0.01 µM): 1.41; relative viability (NCI-H1915; first compound 0.03162 µM): 0.553; relative viability (NCI-H1915; first compound 0.1 µM): 0.759; relative viability (NCI-H1975; first compound 0.001 µM): 0.212; relative viability (NCI-H1975; first compound 0.003162 µM): 0.143; relative viability (NCI-H1975; first compound 0.01 µM): 0.171; relative viability (NCI-H1975; first compound 0.03162 µM): 0.205; relative viability (NCI-H1975; first compound 0.1 µM): 0.138; relative viability (NCI-H2342; first compound 0.001 µM): 0.595; relative viability (NCI-H2342; first compound 0.003162 µM): 0.675; relative viability (NCI-H2342; first compound 0.01 µM): 0.698; relative viability (NCI-H2342; first compound 0.03162 µM): 0.586; relative viability (NCI-H2342; first compound 0.1 µM): 0.673; relative viability (NCI-H23; first compound 0.001 µM): 0.204; relative viability (NCI-H23; first compound 0.01 µM): 0.205; relative viability (NCI-H23; first compound 0.03162 µM): 0.19; relative viability (NCI-H23; first compound 0.1 µM): 0.195; relative viability (NCI-H322M; first compound 0.001 µM): 1.08; relative viability (NCI-H322M; first compound 0.003162 µM): 0.481; relative viability (NCI-H322M; first compound 0.01 µM): 1.08; relative viability (NCI-H322M; first compound 0.03162 µM): 0.797; relative viability (NCI-H322M; first compound 0.1 µM): 1.02; relative viability (NCI-H358; first compound 0.001 µM): 0.286; relative viability (NCI-H358; first compound 0.003162 µM): 0.311; relative viability (NCI-H358; first compound 0.01 µM): 0.43; relative viability (NCI-H358; first compound 0.03162 µM): 0.188; relative viability (NCI-H441; first compound 0.001 µM): 0.33; relative viability (NCI-H441; first compound 0.003162 µM): 0.375; relative viability (NCI-H441; first compound 0.01 µM): 0.322; relative viability (NCI-H441; first compound 0.03162 µM): 0.413; relative viability (NCI-H441; first compound 0.1 µM): 0.304; relative viability (NCI-H460; first compound 0.001 µM): 0.0351; relative viability (NCI-H460; first compound 0.003162 µM): 0.0386; relative viability (NCI-H460; first compound 0.01 µM): 0.0279; relative viability (NCI-H460; first compound 0.03162 µM): 0.0273; relative viability (NCI-H460; first compound 0.1 µM): 0.0271; relative viability (NCI-H520; first compound 0.001 µM): 0.308; relative viability (NCI-H520; first compound 0.01 µM): 0.244; relative viability (NCI-H520; first compound 0.03162 µM): 0.223; relative viability (NCI-H520; first compound 0.1 µM): 0.216; relative viability (NCI-H522; first compound 0.001 µM): 1.11; relative viability (NCI-H522; first compound 0.003162 µM): 1.13; relative viability (NCI-H522; first compound 0.01 µM): 1.35; relative viability (NCI-H522; first compound 0.03162 µM): 1.07; relative viability (NCI-H522; first compound 0.1 µM): 1.15; relative viability (NCI-H596; first compound 0.001 µM): 1.16; relative viability (NCI-H596; first compound 0.003162 µM): 1.05; relative viability (NCI-H596; first compound 0.01 µM): 1.01; relative viability (NCI-H596; first compound 0.03162 µM): 0.655; relative viability (NCI-H596; first compound 0.1 µM): 0.833; relative viability (NCI-H647; first compound 0.001 µM): 0.228; relative viability (NCI-H647; first compound 0.003162 µM): 0.194; relative viability (NCI-H647; first compound 0.01 µM): 0.194; relative viability (NCI-H647; first compound 0.03162 µM): 0.129; relative viability (NCI-H647; first compound 0.1 µM): 0.161; relative viability (NCI-H661; first compound 0.001 µM): 1.01; relative viability (NCI-H661; first compound 0.003162 µM): 0.961; relative viability (NCI-H661; first compound 0.03162 µM): 1.01; relative viability (NCI-H661; first compound 0.1 µM): 0.832; relative viability (NCI-H727; first compound 0.001 µM): 0.349; relative viability (NCI-H727; first compound 0.003162 µM): 0.516; relative viability (NCI-H727; first compound 0.01 µM): 0.227; relative viability (NCI-H727; first compound 0.03162 µM): 0.281; relative viability (NCI-H727; first compound 0.1 µM): 0.344; relative viability (NCI-H838; first compound 0.001 µM): 0.24; relative viability (NCI-H838; first compound 0.003162 µM): 0.276; relative viability (NCI-H838; first compound 0.01 µM): 0.308; relative viability (NCI-H838; first compound 0.03162 µM): 0.273; relative viability (NCI-H838; first compound 0.1 µM): 0.208; relative viability (PC-3 [JPC-3]; first compound 0.001 µM): 0.548; relative viability (PC-3 [JPC-3]; first compound 0.003162 µM): 0.627; relative viability (PC-3 [JPC-3]; first compound 0.01 µM): 0.869; relative viability (PC-3 [JPC-3]; first compound 0.03162 µM): 0.659; relative viability (PC-3 [JPC-3]; first compound 0.1 µM): 0.526; relative viability (SK-LU-1; first compound 0.001 µM): 0.19; relative viability (SK-LU-1; first compound 0.003162 µM): 0.212; relative viability (SK-LU-1; first compound 0.03162 µM): 0.215; relative viability (SK-LU-1; first compound 0.1 µM): 0.217
